Assay results taken from DBAASP.
In brackets after ≈: the same amount, converted by molar mass. Blank lines part the entries; values can stand above or below the compound they belong to.

Experiments:
Test in all cases: ≥ marks a high value that may be exact or a test limit, other limits are often not marked, values filed in µg/mL are converted to µM
[1] = test system: Bacillus subtilis ATCC 6633
[2] = test system: Candida albicans ATCC 10231
[3] = test system: Candida parapsilosis ATCC 22019
Cryptococcus neoformans = test system: Cryptococcus neoformans
[4] = test system: Escherichia coli ATCC 9637
[5] = test system: Klebsiella pneumoniae ATCC 27736
[6] = test system: Pseudomonas aeruginosa ATCC BAA-427
Sporothrix schenckii = test system: Sporothrix schenckii
[7] = test system: Staphylococcus aureus ATCC 25923
[8] = test system: Staphylococcus aureus ATCC 29213
[9] = test system: Staphylococcus aureus ATCC 33592
[10] = test system: Staphylococcus aureus ATCC 700698
[11] = test system: Staphylococcus aureus ATCC 700699
[12] = test system: Staphylococcus aureus ATCC BAA-44
[13] = test system: Bacillus magaterium AB90008
[14] = test system: Enterobacter cloacae AB2010162
[15] = test system: Escherichia coli DH5alpha
[16] = test system: Klebsiella oxytoca AB2010143
[17] = test system: Micrococcus luteus AB2010179
Pseudomonas fluorescens = test system: Pseudomonas fluorescens
Pseudomonas putida = test system: Pseudomonas putida
[18] = test system: Salmonella enterica AB2010185
[19] = test system: Staphylococcus aureus AB94004
[20] = test system: Escherichia coli ATCC 11775
[21] = test system: Escherichia coli ATCC 25922
[22] = test system: Escherichia coli ATCC 35218
[23] = test system: Salmonella enterica subsp. enterica serovar Typhi Vi+
[24] = test system: Salmonella enterica subsp. enterica serovar Typhimurium ATCC 14028
[25] = test system: Candida albicans CPCC 400416
[26] = test system: Escherichia coli CPCC 100521
[27] = test system: Staphylococcus aureus CPCC 100520
[28] = test system: Acinetobacter baumannii AB5075
[29] = test system: Bacillus amyloliquefaciens ATCC 23842
[30] = test system: Bacillus cereus ATCC 14579
[31] = test system: Bacillus licheniformis ATCC 14580
[32] = test system: Bacillus subtilis ATCC 6051
[33] = test system: Enterococcus faecalis 1F-1
Enterococcus faecalis A4 = test system: Enterococcus faecalis A4
[34] = test system: Enterococcus faecium 5F-10
Enterococcus faecium = test system: Enterococcus faecium
Escherichia coli NDM = test system: Escherichia coli NDM
Escherichia coli W3110 = test system: Escherichia coli W3110
[35] = test system: Pseudomonas aeruginosa PA14
[36] = test system: Staphylococcus aureus 215
Staphylococcus aureus MR = test system: Staphylococcus aureus MR
Staphylococcus aureus = test system: Staphylococcus aureus

MIC [1]: 3 µM (≈ 8.8 µg/mL)
MIC [2]: 13.6 µM (≈ 39.9 µg/mL)
MIC [3]: 6.8 µM (≈ 19.9 µg/mL)
MIC (Cryptococcus neoformans): 13.6 µM (≈ 39.9 µg/mL)
MIC [4]: 3 µM (≈ 8.8 µg/mL)
MIC [5]: 6.8 µM (≈ 19.9 µg/mL)
MIC [6]: 6.8 µM (≈ 19.9 µg/mL)
MIC (Sporothrix schenckii): 27.2 µM (≈ 79.8 µg/mL)
MIC [7]: 3 µM (≈ 8.8 µg/mL)
MIC [8]: 1.6 µM (≈ 4.69 µg/mL)
MIC [9]: 1.6 µM (≈ 4.69 µg/mL)
MIC [10]: 3 µM (≈ 8.8 µg/mL)
MIC [11]: 1.6 µM (≈ 4.69 µg/mL)
MIC [12]: 1.6 µM (≈ 4.69 µg/mL)
SMILES: CC[C@H](C)[C@H](NC(=O)[C@H](C)NC(=O)[C@H](CCCCN)NC(=O)[C@@H]1CCCN1C(=O)[C@H](C)NC(=O)[C@H](Cc1cnc[nH]1)NC(=O)[C@@H](NC(=O)[C@H](C)NC(=O)CNC(=O)[C@H](CCCCN)NC(=O)[C@@H](NC(=O)[C@H](CC(C)C)NC(=O)[C@H](Cc1c[nH]c2ccccc12)NC(=O)CNC(=O)[C@H](Cc1ccccc1)NC(=O)[C@@H](N)Cc1ccccc1)[C@@H](C)CC)[C@@H](C)CC)C(=O)N[C@@H](Cc1cnc[nH]1)C(=O)NCC(=O)N[C@@H](CC(C)C)C(=O)N[C@H](C(=O)N[C@@H](Cc1cnc[nH]1)C(=O)N[C@@H](CCCN=C(N)N)C(=O)N[C@@H](CCCN=C(N)N)C(=O)N[C@@H](CCCN=C(N)N)C(=O)N[C@@H](Cc1cnc[nH]1)C(=O)O)[C@@H](C)CC [FFGWLIKGAIHAPKAIHGLIHRRRH]

MIC [13]: 1.5 µM (≈ 3.31 µg/mL)
MIC [14]: ≥ 45 µM
MIC [15]: ≥ 40 µM
MIC [16]: ≥ 45 µM
MIC [17]: 1.5 µM (≈ 3.31 µg/mL)
MIC (Pseudomonas fluorescens): ≥ 50.5 µM
MIC (Pseudomonas putida): ≥ 35 µM
MIC [18]: ≥ 40 µM
MIC [19]: 6.9 µM (≈ 15.2 µg/mL)
SMILES: CC[C@H](C)[C@H](NC(=O)[C@H](CC(C)C)NC(=O)[C@H](CCCCN)NC(=O)[C@H](CC(C)C)NC(=O)[C@H](C)NC(=O)CNC(=O)[C@H](CCCCN)NC(=O)[C@H](C)NC(=O)[C@H](CC(C)C)NC(=O)[C@H](C)NC(=O)CNC(=O)[C@H](Cc1c[nH]c2ccccc12)NC(=O)[C@@H](N)Cc1ccccc1)C(=O)N1CCC[C@H]1C(=O)N[C@@H](CO)C(=O)N[C@@H](CC(C)C)C(=O)N[C@H](C(=O)N[C@@H](CO)C(=O)N[C@@H](CO)C(=O)N[C@@H](Cc1ccccc1)C(=O)N[C@H](C(N)=O)[C@@H](C)O)C(C)C [FWGALAKGALKLIPSLVSSFT]

The remaining lines, values behind:

SMILES: CC[C@H](C)[C@H](NC(=O)[C@@H]1CCCN1C(=O)[C@H](CCCN=C(N)N)NC(=O)[C@@H]1CCCN1C(=O)[C@H](Cc1cnc[nH]1)NC(=O)[C@H](CO)NC(=O)[C@@H](NC(=O)[C@@H]1CCCN1C(=O)[C@H](CCCCN)NC(=O)[C@@H]1CCCN1C(=O)[C@H](CO)NC(=O)[C@H](Cc1ccc(O)cc1)NC(=O)[C@@H]1CCCN1C(=O)[C@H](CCCN=C(N)N)NC(=O)[C@@H]1CCCN1C(=O)[C@H](CCCCN)NC(=O)CN)[C@@H](C)O)C(=O)N[C@@H](CCCN=C(N)N)C(=O)N[C@H](C(=O)O)C(C)C [GKPRPYSPKPTSHPRPIRV]
MIC [20]: 3 µM (≈ 6.51 µg/mL)
MIC [21]: 3.5 µM (≈ 7.6 µg/mL)
MIC [22]: 2 µM (≈ 4.34 µg/mL)
MIC [23]: 10 µM (≈ 21.7 µg/mL)
MIC [24]: 10 µM (≈ 21.7 µg/mL)

SMILES: CC[C@H](C)[C@H](N)C(=O)N[C@H](C(=O)NCC(=O)N1CCC[C@H]1C(=O)N[C@H](C(=O)N[C@@H](CC(C)C)C(=O)NCC(=O)N[C@@H](CC(C)C)C(=O)N[C@H](C(=O)NCC(=O)N[C@@H](CCCCN)C(=O)N[C@@H](C)C(=O)N[C@@H](CC(C)C)C(=O)NCC(=O)NCC(=O)N[C@@H](CC(C)C)C(=O)N[C@@H](CC(C)C)C(N)=O)C(C)C)C(C)C)[C@@H](C)CC [IIGPVLGLVGKALGGLL]
MIC [25]: ≥ 161 µM
MIC [26]: ≥ 161 µM
MIC [27]: ≥ 161 µM

SMILES: CC[C@H](C)[C@H](NC(=O)[C@H](C)NC(=O)[C@@H](NC(=O)[C@@H]1CCCN1C(=O)[C@H](CCCN=C(N)N)NC(=O)[C@H](CCCCN)NC(=O)[C@H](CO)NC(=O)[C@@H](NC(=O)[C@H](CC(C)C)NC(=O)[C@@H](NC(=O)[C@H](CCCN=C(N)N)NC(=O)[C@@H](NC(=O)[C@H](CC(C)C)NC(=O)[C@@H](N)CCCN=C(N)N)C(C)C)[C@@H](C)CC)C(C)C)C(C)C)C(=O)N[C@@H](CCCCN)C(=O)N1CCC[C@H]1C(=O)N[C@@H](Cc1ccc(O)cc1)C(=O)N[C@@H](Cc1ccccc1)C(=O)N[C@@H](CCCN=C(N)N)C(=O)N[C@@H](CC(C)C)C(=O)O [RLVRILVSKRPVAIKPYFRL]
MIC [28]: 2 µM (≈ 4.85 µg/mL)
MIC [29]: 26.4 µM (≈ 64 µg/mL)
MIC [30]: 26.4 µM (≈ 64 µg/mL)
MIC [31]: 26.4 µM (≈ 64 µg/mL)
MIC [32]: 26.4 µM (≈ 64 µg/mL)
MIC [33]: 1.65 µM (≈ 4 µg/mL)
MIC (Enterococcus faecalis A4): 1.65 µM (≈ 4 µg/mL)
MIC [34]: 0.825 µM (≈ 2 µg/mL)
MIC (Enterococcus faecium): 1.65 µM (≈ 4 µg/mL)
MIC (Escherichia coli NDM): 8 µM (≈ 19.4 µg/mL)
MIC (Escherichia coli W3110): 4 µM (≈ 9.7 µg/mL)
MIC [35]: 8 µM (≈ 19.4 µg/mL)
MIC [36]: 26.4 µM (≈ 64 µg/mL)
MIC [8]: > 26.4 µM
MIC (Staphylococcus aureus MR): 26.4 µM (≈ 64 µg/mL)
MIC (Staphylococcus aureus): 13.2 µM (≈ 32 µg/mL)
